Values quoted from earlier work as cited in article PMC12652113, “Fluorescent Albumin-Binding N-Propylbenzene Indolenine-Based Squaraines as Potential Candidates for Prostate Cancer Photodynamic Therapy Photosensitizers” (International Journal of Molecular Sciences, 2025).

Conditions: in dimethylformamide; reference value used for the calculation; cited from earlier work

## [Zn+2].c1ccc2c(c1)-c1nc-2nc2[n-]c(nc3nc([n-]c4nc(n1)-c1ccccc1-4)-c1ccccc1-3)c1ccccc21 [Zinc phthalocyanine, zinc phthalocyanine]
  fluorescence quantum yield (ΦF) of the reference standard: 0.17
